These results are taken from US20240279159A1, “HERBICIDAL ARYLCYCLOPENTENE CARBOXAMIDES” (BASF SE, priority 2021, published 2024).

Structures are written as SMILES.

For test [1], the system named is ALOMY. Nature of the test: greenhouse herbicidal test, post-emergence treatment. The settings on record: post-emergence method, scale from 0 to 100. It is filed as in vivo, Alopercurus myosuroides. From the text: (§1) The culture containers used were plastic flowerpots containing loamy sand with approximately 3.0% of humus as the substrate. The seeds of the test plants were sown separately for each species.
(§2) For the pre-emergence treatment, the active ingredients, which had been suspended or emulsified in water, were applied directly after sowing by means of finely distributing nozzles. The containers were irrigated gently to promote germination and growth and subsequently covered with transparent plastic hoods until the test plants had rooted. This cover caused uniform germination of the test plants, unless this had been impaired by the active ingredients. For the post-emergence treatment, the test plants were first grown to a height of 3 to 15 cm, depending on the plant habit, and only then treated with the active ingredients which had been suspended or emulsified in water. For this purpose, the test plants were either sown directly and grown in the same containers, or they were first grown separately as seedlings and transplanted into the test containers a few days prior to treatment.
(§3) Depending on the species, the test plants were kept at 10-25° C. or 20-35° C., respectively. The test period extended over 2 to 4 weeks. During this time, the test plants were tended, and their response to the individual treatments was evaluated.
Evaluation was carried out using a scale from 0 to 100. 100 means no emergence of the test plants, or complete destruction of at least the aerial moieties, and 0 means no damage, or normal course of growth. A good herbicidal activity is given at values of 60 to 90 and a very good herbicidal activity is given at values of 90 to 100.
The test plants used in the greenhouse experiments were of the following species: […]

Test [2] concerns AMARE. The experiment in a line: greenhouse herbicidal test, pre-emergence treatment. It is filed as in vivo, Amaranthus retroflexus. The settings on record: pre-emergence method, application rate 0.250 kg/ha; scale from 0 to 100.
Source text: as §1, §2, §3
(§4) Evaluation was carried out using a scale from 0 to 100. […]

In test [3] the test system is ECHCG. The description is as above. It is filed as in vivo, Echinocloa crus-galli. The note with it: pre-emergence method, application rate 1,000 kg/ha; scale from 0 to 100.
Source text: as §1, §2, §3, §4

Test [4] relates to SETFA. Described as above. The note with it: pre-emergence method, application rate 1,000 kg/ha; scale from 0 to 100. It is filed as in vivo, Setaria faberi.
Source text: as §1, §2, §3, §4

Test [5] deals with AMARE. Nature of the test: greenhouse herbicidal test, post-emergence treatment. It is filed as in vivo, Amaranthus retroflexus. The settings on record: post-emergence method, scale from 0 to 100.
Source text: as §1, §2, §3, §4

Test [6] has as its system ABUTH. Described as above. It is filed as in vivo, Abutilon theophrasti. The note with it: post-emergence method, application rate 0.250 kg/ha; scale from 0 to 100.
Source text: as §1, §2, §3, §4

The subject of test [7] is ECHCG. The test is described as above. It is filed as in vivo, Echinocloa crus-galli. The note with it: post-emergence method, application rate 0.250 kg/ha; scale from 0 to 100.
Source text: as §1, §2, §3, §4

Take `COC(=O)[C@@H]1C=C[C@H](NC(=O)C2(C)CC(c3cc(Cl)cc(Cl)c3)=CO2)C1` (relative stereo) [I6]: in test [1] (application rate 0.250 kg/ha), the “herbicidal activity against ALOMY” value is on record as “very good (a very good herbicidal activity is given at values of 90 to 100)”.
Turning to `COC(=O)[C@@H]1C=C[C@H](NC(=O)C2(C(F)(F)F)CC(c3cc(F)cc(F)c3)=CO2)C1` (relative stereo) [I8], the “herbicidal activity against AMARE” value in test [2] was “good (A good herbicidal activity is given at values of 60 to 90)”.
As for `COC(=O)C[C@H](C)NC(=O)C1(C)CC(c2cc(F)cc(F)c2)=CO1` (single isomer, unassigned) [I1], the “herbicidal activity against ALOMY” value in test [1] (application rate 1.000 kg/ha) is on record as “very good (a very good herbicidal activity is given at values of 90 to 100)”.
In the case of `COC(=O)C[C@H](C)NC(=O)C1(C)CC(c2cc(F)cc(F)c2)=CO1` (single isomer, unassigned) [I2], the “herbicidal activity against ECHCG” value in test [3] is “good (A good herbicidal activity is given at values of 60 to 90)”. In test [4], the “herbicidal activity against SETFA” value is “good (A good herbicidal activity is given at values of 60 to 90)”. Also, the “herbicidal activity against ALOMY” value in test [1] (application rate 1.000 kg/ha) is recorded as “good (A good herbicidal activity is given at values of 60 to 90)”.
For the molecule `COC(=O)C[C@H](C)NC(=O)C1(C)CC(c2cc(Cl)cc(Cl)c2)=CO1` (single isomer, unassigned) [I3], in test [5] (application rate 1.000 kg/ha), the “herbicidal activity against AMARE” value is recorded as “very good (a very good herbicidal activity is given at values of 90 to 100)”.
As to `COC(=O)C1CCC(NC(=O)C2(C)CC(c3cc(Cl)cc(Cl)c3)=CO2)C1` (stereo not shown) [I14], in test [5] (application rate 0.250 kg/ha), the “herbicidal activity against AMARE” value is “good (A good herbicidal activity is given at values of 60 to 90)”. Further, the “herbicidal activity against ABUTH” value in test [6] is “good (A good herbicidal activity is given at values of 60 to 90)”.
For `COC(=O)[C@@H]1C=C[C@H](NC(=O)C2(C)CC=C(c3cc(F)cc(F)c3)C2=O)C1` (stereo partly drawn) [I111, methyl (1S,4R)-4-[[3-(3,5-difluorophenyl)-1-methyl-2-oxo-cyclopent-3-ene-1-carbonyl]amino]cyclopent-2-ene-1-carboxylate], in test [7], the “herbicidal activity against ECHCG” value is reported as “good (A good herbicidal activity is given at values of 60 to 90)”.
